In article PMC6328008 (Journal of Enzyme Inhibition and Medicinal Chemistry, 2019):
“Also recorded” adds a separate entry of the source.

Assays:
[1] = tested on: Panc1 pancreatic cancer cells; assay: Cancer cell line growth inhibition assay; type: cell-based, human; conditions: for Inhibition of growth of Panc1 cells (in words): 3 days, concentrations up to 10 µM
[2] = tested on: normal mobilised peripheral blood progenitor cells; conditions: listed as NSAH; cited from earlier work

For `O=C1Nc2ccccc2/C1=N\NC(=O)c1ccccc1O` [TP1, (E)-2-Hydroxy-N'-(2-oxoindolin-3-ylidene)benzohydrazide], the “Inhibition of growth of Panc1 cells (in words)” value (shortened to “Inhibition”) [1] was “did not inhibit the growth”.

With `O=C(N/N=C/c1cc(-c2ccccc2)ccc1O)c1ccccc1O` [TP2, (E)-2-Hydroxy-N'-((4-hydroxy-[1,1'-biphenyl]-3-yl)methylene)-benzohydrazide] the “Fold decrease in potency in cells on removal of the methoxy (TP2, 3 vs TP5, 6)” value ([1]; Panc1) was over 2 fold.

With `O=C(N/N=C/c1cc(-c2ccsc2)ccc1O)c1ccccc1O` [TP3, (E)-2-Hydroxy-N'-(2-hydroxy-5-(thiophen-3-yl)-benzylidene)-benzohydrazide] the “Fold decrease in potency in cells on removal of the methoxy (TP2, 3 vs TP5, 6)” value ([1]; Panc1) was over 2 fold.

In the case of `COc1ccc(-c2ccsc2)c(/C=N/NC(=O)c2ccccc2O)c1O` [TP6, (E)-2-Hydroxy-N'-(2-hydroxy-3-methoxy-6-(thiophen-3-yl)benzylidene)-benzohydrazide], the “Fold decrease in IC50 over lead compound NSAH (TP8)” value ([1]; Panc1) is reported as over 2 fold.

In the case of `Nc1ncnc2c1ncn2-c1ccc(/C=N/NC(=O)c2ccccc2O)cc1` [TP7, (E)-N'-(4–(6-amino-9H-purin-9-yl)benzylidene)-2-hydroxybenzohydrazide], the “Inhibition” value [1] is reported as “did not inhibit the growth”.

In the case of `O=C(N/N=C/c1c(O)ccc2ccccc12)c1ccccc1O` [TP8, (E)-2-Hydroxy-N'-((2-hydroxynaphthalen-1-yl)methylene)-benzohydrazide], the “Toxicity against normal mobilised peripheral blood progenitor cells” value [2] is listed as “much less effective”.

For `COc1ccc(-c2cnc(-c3ccccc3O)s2)cc1` [TP9, 2–(5-(4-Methoxyphenyl)thiazol-2-yl)-phenol], the “Inhibition” value [1] was “did not inhibit the growth; also recorded: ineffective”.

In the case of `O=C(NNC(=O)c1c(O)ccc2ccccc12)c1cccnc1` [TP11, N'-(2-Hydroxy-1-naphthoyl)-nicotinohydrazide], the “Inhibition” value [1] is reported as “did not inhibit the growth”.

With `O=C(N/N=C/c1cccnc1)c1c(O)ccc2ccccc12` [TP12, (E)-2-Hydroxy-N'-(pyridin-3-ylmethylene)-1-naphthohydrazide] the “Inhibition” value [1] was “did not inhibit the growth”.

In the case of `O=C(NNC(=O)c1ccccc1O)c1cccnc1` [TP13, N'-(2-Hydroxybenzoyl)-nicotinohydrazide], the “Inhibition” value [1] is reported as “did not inhibit the growth”.
